Laboratory results: US20050209157A1, “Short bioactive peptides and methods for their use” (priority 2001, published 2005)
≈ marks a conversion by molar mass, not a printed value. No end group written: not given here.

Tests used:
[1] = test system: Pseudomonas solanacearum (PS)
[2] = Synergy of Shiva-1 and lysozyme, percent viability; format: cell-based, Pseudomonas aeruginosa; settings: Pseudomonas aeruginosa
Procedure: (§1) The percent viability of Pseudomonas aeruginosa was determined relative to blank controls.

[3] = test system: Xanthomonas campestris pv. campestris (XC)
[4] = test system: Erwinia caratovora subsp. carotova (EC)
[5] = Synergy of Shiva-1 and lysozyme, percent viability; format: cell-based, Staphylococcus intermedius
Procedure: (§2) The percent viability of gram positive S. intermedius 19930, S. intermedius 20034, and S. aureus was determined relative to blank controls.

[6] = Synergy of Shiva-1 and lysozyme, percent viability; format: cell-based, Staphylococcus aureus; settings: S. aureus
Procedure: as §2

[7] = test system: Pseudomonas syringae pv. tabaci (PSPT)
Pseudomonas aeruginosa = assay: Synergy of Shiva-1 and lysozyme, percent viability; format: cell-based
Procedure: as §1

S. intermedius 20034 = assay: Synergy of Shiva-1 and lysozyme, percent viability; format: cell-based, Staphylococcus intermedius; settings: lysozyme 10×
Procedure: as §2

S. intermedius 19930 = assay: Synergy of Shiva-1 and lysozyme, percent viability; format: cell-based, Staphylococcus intermedius
Procedure: as §2

S. aureus = assay: Synergy of Shiva-1 and lysozyme, percent viability; format: cell-based, Staphylococcus aureus; settings: lysozyme 10×
Procedure: as §2

human leukocytes (WBC) = assay: Leukocyte (WBC) inhibition, toxicity LD50; format: cell-based; settings: Table 42
Procedure: (§3) In vitro viability of human leukocyte cells in the presence of different peptides at different concentrations was determined by an Alamar Blue protocol. Alamar Blue (Promega, Madison, Wis.) is an indicator dye, formulated to measure quantitatively the proliferation and cytotoxicity of the cells. The dye consists of an oxidation-reduction (redox) indicator that yields a calorimetric change and a fluorescent signal in response to cellular metabolic activity.
(§4) Assay protocol: Blood from a human was drawn and centrifuged at 1500 rpm for 15 minutes at room temperature. The buffy coat cells at the plasma-red blood cell interface were aspirated. Buffy coat cells (mainly lymphocyte cells) were then transferred into 15 ml centrifuge tubes containing 5 ml of RPMI-1640 medium+10% Fetal Bovine Serum (Gibco, Grand Island, N.Y.). Additional medium was added to the tubes to bring the volume up to 10 ml. The buffy coat suspension was then carefully layered on 5 ml of Histopaque (Sigma Chemical Co., St. Louis, Mo.) and centrifuged at 1500 rpm for 30 minutes at room temperature. The interface which is mostly PBMCs (peripheral mononuclear cells) was aspirated and transferred to a 15 ml conical centrifuge tube and, resuspended in 2 ml cold RPMI-1640 and brought up to 15 ml with cold RPMI-1640 medium. Cells were centrifuged at 1500 rpm for 10 minutes. The supernatant was then aspirated and discarded. The cell pellet was re-suspended in 1 ml of cold RPMI 1640 and brought up to 15 ml with RPMI medium. This step was repeated twice, except that in the last step, the cells were resuspended with 1 ml of cold RPMI-1640 medium and cell counts were performed with a hemocytometer according to the Sigma cell culture catalogue.
(§5) Pokewood mitogen was used as a control along with positive and negative controls. Negative control cells were killed with 70% methanol. Positive (+) control cells were incubated in RPMI medium (untreated). […] of AlamarBlue was added to the cells, and readings were taken after 24 hours, 48 hours, 72 hours, and 96 hours using a fluorimeter (excitation 544/transmission 590 nm).
(§6) In choosing a peptide for possible treatment of a given indication it is important to match the therapeutic activity and specificity of the peptide with its possible toxic properties.
(§7) The protocols for WBC and WI38 stimulation have been discussed above. The RBC protocol follows Table 24.

[8] = Leukocyte (WBC) inhibition, toxicity LD50; format: cell-based, human; settings: male, human, human leukocytes (buffy coat cells, mostly PBMCs); Table 41, lower part
Procedure: as §3, §4, §5, §6, §7

MCF7 = assay: Anti-cancer assay, MTT, LD50; format: cell-based
From the text: Numbers are LD50 values (μg/mL).

in vitro [9] = settings: human, WI38 normal lung fibroblast cells, WI38 LD50, Table 41, lower part
[10] = test system: human red blood cells (RBC); assay: in vitro; format: cell-based; settings: Table 42
in vitro [11] = format: cell-based, human; settings: human, human red blood cells, pH 7, Table 41, lower part; read-out: RBC LD50
WI38 = settings: Table 42

MPKWKVFKKIEKVGRNIRNGIVKAGPAIAVLGEAKALG-NH2 (C-terminus assumed) [SB-37]
LD50 [1]: 64.0 µM | viability at 0.01 µM [2]: 100% | viability at 0.1 µM [2]: 79.4% | viability at 1 µM [2]: 48.8% | viability at 5 µM [2]: 38.5% | viability at 25 µM [2]: 0% | LD50 [3]: 0.57 µM | LD50 [4]: 1.48 µM | viability at 0.01 µM ([5]; S. intermedius 19930): 100% | viability at 0.1 µM ([5]; S. intermedius 19930): 94.7% | viability at 0.5 µM ([5]; S. intermedius 19930): 69.4% | viability at 1 µM ([5]; S. intermedius 19930): 42.5% | viability at 5 µM ([5]; S. intermedius 19930): 36.1% | viability at 10 µM ([5]; S. intermedius 19930): 5.6% | viability at 50 µM ([5]; S. intermedius 19930): 0% | viability at 0.01 µM ([5]; S. intermedius 20034): 100% | viability at 0.5 µM ([5]; S. intermedius 20034): 68% | viability at 5 µM ([5]; S. intermedius 20034): 35.1% | viability at 50 µM ([5]; S. intermedius 20034): 0% | viability at 0.01 µM [6]: 100% | viability at 0.1 µM [6]: 100% | viability at 0.5 µM [6]: 81% | viability at 1 µM [6]: 47.5% | viability at 5 µM [6]: 31.8% | viability at 10 µM [6]: 5.6% | viability at 50 µM [6]: 1.9% | LD50 [7]: 5.20 µM

Lysozyme
LD50 [1]: >16.0 (key: > indicates greater than 1000.) | percent viability (Pseudomonas aeruginosa; peptide concentration 0.01 μM, lysozyme at same molar concentration (1×), relative to blank controls): 100% | percent viability (Pseudomonas aeruginosa; peptide concentration 0.1 μM, lysozyme 1×): 82.2% | percent viability (Pseudomonas aeruginosa; peptide concentration 1 μM, lysozyme 1×): 52.1% | percent viability (Pseudomonas aeruginosa; peptide concentration 5 μM, lysozyme 1×): 7.9% | percent viability (Pseudomonas aeruginosa; peptide concentration 25 μM, lysozyme 1×): 0.4% | LD50 [3]: >0.027 (key: > indicates greater than 1000.) | LD50 [4]: >0.44 (key: > indicates greater than 1000.) | percent viability (S. intermedius 20034; peptide concentration 0.01 μM): 100% | percent viability (S. intermedius 20034; peptide concentration 0.5 μM): 59.0% | percent viability (S. intermedius 20034; peptide concentration 5 μM): 38.3% | percent viability (S. intermedius 20034; peptide concentration 50 μM): 10.0% | percent viability (S. intermedius 19930; peptide concentration 0.01 μM, lysozyme at ten times the molar concentration (10×)): 100% | percent viability (S. intermedius 19930; peptide concentration 0.1 μM, lysozyme 10×): 100% | percent viability (S. intermedius 19930; peptide concentration 0.5 μM, lysozyme 10×): 81.3% | percent viability (S. intermedius 19930; peptide concentration 1 μM, lysozyme 10×): 53% | percent viability (S. intermedius 19930; peptide concentration 5 μM, lysozyme 10×): 49.5% | percent viability (S. intermedius 19930; peptide concentration 10 μM, lysozyme 10×): 34.4% | percent viability (S. intermedius 19930; peptide concentration 50 μM, lysozyme 10×): 22% | percent viability (S. aureus; peptide concentration 0.01 μM): 100% | percent viability (S. aureus; peptide concentration 0.1 μM): 100% | percent viability (S. aureus; peptide concentration 0.5 μM): 100% | percent viability (S. aureus; peptide concentration 1 μM): 51.0% | percent viability (S. aureus; peptide concentration 5 μM): 18.4% | percent viability (S. aureus; peptide concentration 10 μM): 13.3% | percent viability (S. aureus; peptide concentration 50 μM): 9.5% | LD50 [7]: >0.19 (key: > indicates greater than 1000.)

CC(C)C[C@H](NC(=O)[C@H](C)NC(=O)[C@H](CC(C)C)NC(=O)[C@H](CCCCN)NC(=O)[C@H](C)NC(=O)[C@H](CC(C)C)NC(=O)[C@H](CCCCN)NC(=O)[C@H](CCCCN)NC(=O)[C@H](C)NC(=O)[C@H](CC(C)C)NC(=O)[C@H](CCCCN)NC(=O)[C@H](C)NC(=O)[C@H](CC(C)C)NC(=O)[C@H](CCCCN)NC(=O)[C@H](CCCCN)NC(=O)[C@H](C)NC(=O)[C@@H](N)Cc1ccccc1)C(N)=O [17 (35)]
WBC LD50 (human leukocytes (WBC)): 25 µg/mL | CC50 [8]: 25 mg/L (≈ 13.5 µM) | MCF7 LD50 (MCF7; Table 41, lower part): 9 µg/mL | MCF7 LD50 (MCF7; Table 42): 9 µg/mL | CC50 at 24 h (in vitro [9]): 25 mg/L (≈ 13.5 µM) | RBC LD50 [10]: 200 µg/mL | HC50 at 1 h (in vitro [11]): 200 µg/mL | WI38 LD50 (WI38): 25 µg/mL

FAKKLAKLAKKLLAL-NH2 [20 (38)]
WBC LD50 (human leukocytes (WBC)): 54 µg/mL | CC50 [8]: 54 mg/L | MCF7 LD50 (MCF7; Table 41, lower part): 17 µg/mL | MCF7 LD50 (MCF7; Table 42): 17 µg/mL | CC50 at 24 h (in vitro [9]): 100 mg/L | RBC LD50 [10]: 350 µg/mL | HC50 at 1 h (in vitro [11]): 350 µg/mL | WI38 LD50 (WI38): 100 µg/mL

CC(C)C[C@H](NC(=O)[C@H](C)NC(=O)[C@H](CC(C)C)NC(=O)[C@H](CCCCN)NC(=O)[C@H](C)NC(=O)[C@H](CC(C)C)NC(=O)[C@H](CCCCN)NC(=O)[C@H](CCCCN)NC(=O)[C@H](C)NC(=O)[C@H](CC(C)C)NC(=O)[C@H](CCCCN)NC(=O)[C@H](C)NC(=O)[C@H](CC(C)C)NC(=O)[C@H](CCCCN)NC(=O)[C@H](CCCCN)NC(=O)[C@H](C)NC(=O)[C@@H](N)C(C)C)C(N)=O [32 (50)]
WBC LD50 (human leukocytes (WBC)): 420 µg/mL | CC50 [8]: 420 mg/L (≈ 233 µM) | MCF7 LD50 (MCF7; Table 41, lower part): 32 µg/mL | MCF7 LD50 (MCF7; Table 42): 32 µg/mL | CC50 at 24 h (in vitro [9]): 40 mg/L (≈ 22.1 µM) | RBC LD50 [10]: 420 µg/mL | HC50 at 1 h (in vitro [11]): 420 µg/mL | WI38 LD50 (WI38): 40 µg/mL
